Tests used:
Plasmodium falciparum [1] = assay: NOVARTIS: Inhibition of Plasmodium falciparum W2 (drug-resistant) proliferation in erythrocyte-based infection assay; format: functional, organism-based; settings: Plasmodium falciparum, W2; read-out: EC50
Plasmodium falciparum [2] = assay: NOVARTIS: Inhibition of Plasmodium falciparum 3D7 (drug-susceptible) proliferation in erythrocyte-based infection assay; format: functional, organism-based; settings: Plasmodium falciparum, 3D7
[3] = NOVARTIS: Cytotoxicity against human hepatocellular carcinoma cell line (Huh7); format: toxicity, cell-based, Huh-7; settings: Huh7 cells (hepatocellular carcinoma cell line)

Row | SMILES | EC50 (Plasmodium falciparum [1]) | EC50 (Plasmodium falciparum [2]) | CC50 [3]
1 | C[N+]1(CC(=O)NNc2c3ccccc3nc3ccccc23)CCOCC1 | 0.364 µM | 0.637 µM | > 100 µM
2 | COc1cc2nc(NCCN3CCOCC3)n3nc(-c4ccccc4)nc3c2cc1OC | 0.134 µM | 0.114 µM | > 10 µM
3 | Cc1ccc(C[n+]2cc(-c3ccc(F)cc3)n3c2CCC3)cc1 | 0.321 µM | 0.867 µM | > 100 µM
4 | CCCN1CCN(C(=O)C(=O)Nc2ccc3nc4n(c(=O)c3c2)CCCCC4)CC1 | 0.165 µM | 1.69 µM | > 100 µM
5 | CCCCCCCCCCCCOCCCNC(=O)c1cccc(N)c1 | > 1.56 µM | 1.57 µM | > 10 µM
6 | c1ccc2c(c1)[nH]c1c(NCCN3CCCCC3)ncnc12 | 0.788 µM | 0.704 µM | 49.9 µM
7 | CCC(=O)N1CCc2cc(Br)cc(S(=O)(=O)N3CCN(CC)CC3)c21 | > 0.744 µM | > 1.63 µM | > 10 µM
8 | CCCCN1Cc2ccc(C(=O)NCCN3CCOCC3)cc2N=C1c1ccc(OC)cc1 | 4.41 µM | > 10 µM | > 100 µM
9 | C[n+]1ccc(C=Cc2ccccc2F)c2ccccc21 | 0.0781 µM | 0.0576 µM | 81.9 µM
10 | COCCCNC(=O)CSCc1nc(-c2ccccc2F)oc1C | > 1.74 µM | > 0.467 µM | > 10 µM
11 | CC1=C(C(=O)OC(C)C)C(c2ccc(F)cc2)C2=C(CC(c3ccc(Cl)cc3)CC2=O)N1 (centres undefined) | 0.0913 µM | 0.358 µM | 29.7 µM
12 | CCN(CC)C(CN1CCN(CC(C)C(=O)c2ccc(O)cc2)CC1)c1ccc(F)cc1 (centres undefined) | 4.31 µM | 1.95 µM | 49 µM
13 | CC(C)COc1ccc(C(=O)N/C(=C/c2ccccc2)C(N)=O)cc1 | > 0.617 µM | > 1.25 µM | > 10 µM
14 | CCN(CC)CCN(Cc1cc2cc(OC)ccc2[nH]c1=O)C(=S)Nc1cccc(Cl)c1 | 2.19 µM | 1.19 µM | 23.1 µM
15 | COc1cc(NC(C)CCCN(Cc2ccc(F)cc2)C(=O)C(C)(C)CCl)c2ncccc2c1 (centres undefined) | < 0.00343 µM | 0.469 µM | > 1.83 µM
16 | CCOc1ccc(C=C(C#N)c2nc3ccccc3[nH]2)cc1OC | 0.263 µM | 0.516 µM | > 100 µM
17 | C=CCc1c(C)nc2ccccc2c1O | 0.844 µM | 0.707 µM | > 100 µM
18 | COc1ccc(-n2c(CNc3cc(C(F)(F)F)ccc3Cl)nnc2SCc2ccccc2Cl)cc1 | 0.801 µM | 0.728 µM | > 100 µM
19 | OC(CNCC1COc2ccccc2O1)c1ccccc1 (centres undefined) | 1 µM | > 12.2 µM | > 100 µM
20 | CCCN(CCC)C(=O)c1c[nH]c2ccc(S(=O)(=O)N(C)c3ccc(F)cc3)cc2c1=O | 6.65 µM | > 12.5 µM | > 100 µM
21 | CCCOC(=O)C1=C(C)NC2=C(C(=O)CC(c3ccc(OC)c(OC)c3)C2)C1c1ccc([N+](=O)[O-])cc1 (centres undefined) | 0.0205 µM | 0.0259 µM | > 100 µM
22 | O=C(NCCCN1CCCC1=O)c1cnc(N2CCN(Cc3ccccc3)CC2)nc1NCCc1ccccc1 | 0.699 µM | 0.572 µM | > 10 µM
23 | O=C(/C=C/c1ccccn1)NCC1Cc2cc(-c3cnccn3)ccc2O1 (centres undefined) | > 0.356 µM | > 1.25 µM | > 10 µM

Row | SMILES | EC50 (Plasmodium falciparum [1]) | EC50 (Plasmodium falciparum [2]) | CC50 [3]
24 | COc1ccc(Nc2nc(Nc3ccc(OC)cc3)c3[nH]ccc3n2)cc1 | 0.678 µM | 0.667 µM | > 10 µM
25 | COCCOC(=O)C1=C(C)NC2=C(C(=O)CC(c3ccc(OC)c(OC)c3)C2)C1c1ccc(Cl)cc1Cl (centres undefined) | 0.0131 µM | 0.0224 µM | > 100 µM
26 | Fc1ccc(Nc2nc(OC(C(F)(F)F)C(F)(F)F)nc(OC(C(F)(F)F)C(F)(F)F)n2)cc1 | 1.57 µM | > 1.34 µM | > 10 µM
27 | CC[n+]1c(C)n(-c2ccccc2)c2ccc(C3Nc4ccccc4S3)cc21 (centres undefined) | 0.734 µM | 1.18 µM | > 100 µM
28 | Nc1cc(C(=O)Nc2ccc(C3=NCCCN3)cc2)ccc1C(=O)Nc1ccc(C2=NCCCN2)cc1 | 0.123 µM | 0.19 µM | > 100 µM
29 | Oc1ccc(Br)cc1C=NNc1nc2ccccc2[nH]1 | 0.504 µM | 0.536 µM | 54 µM
30 | COc1cccc(OC)c1C(=O)NCCCCNc1ccnc2cc(Cl)ccc12 | 0.198 µM | 0.449 µM | > 12.2 µM
31 | O=C1C(=O)N(Cc2cccc3ccccc23)c2ccc(Br)cc21 | 4.23 µM | > 12.5 µM | > 100 µM
32 | Cc1cc(Nc2ccc(C)c(C)c2)n2nc(C)nc2n1 | 0.378 µM | 0.183 µM | > 100 µM
33 | CN1CCc2c(sc3c2C(=O)NC(c2ccc(O)cc2)N3)C1 (centres undefined) | 0.378 µM | 0.755 µM | 33.5 µM
34 | CC(C)Cc1ccc(-c2csc(NC(=O)C3C4CCC(C4)C3C(=O)O)n2)cc1 (centres undefined) | 1.85 µM | 0.772 µM | > 100 µM
35 | CC(C)(C)c1nn(-c2ccc(Cl)cc2)c2[nH]c(=O)c(CNCc3ccc(Cl)cc3)cc12 | 0.129 µM | 0.351 µM | > 100 µM
36 | Cc1ccc2c(c1)NC(c1ccc(F)cc1)C1=C(CC(c3ccccc3)CC1=O)N2 (centres undefined) | 0.635 µM | 0.833 µM | > 100 µM
37 | COc1ccc(-c2csc3ncnc(Cl)c23)cc1OC | 0.723 µM | 2.32 µM | > 100 µM
38 | COc1ccccc1Cc1nc2ccccc2nc1SCC(=O)Nc1cccc(C(F)(F)F)c1 | > 8.34 µM | > 5.52 µM | > 100 µM
39 | C=C[C@H]1CN2CC[C@H]1C[C@@H]2[C@@H](OC(=O)Cc1ccccc1)c1ccnc2ccccc12 | 0.0517 µM | 0.0494 µM | > 10 µM
40 | Cc1cc(-c2ccc(O)c(CN3CCCCC3CO)c2)c2ccccc2n1 (centres undefined) | 0.0577 µM | 0.361 µM | 59.1 µM
41 | Cc1cc(Cl)ccc1NC(=O)c1ccccc1[N+](=O)[O-] | 0.93 µM | 2.07 µM | > 100 µM
42 | CCOC(=O)c1[nH]c2ccc(C)cc2c1N=NN(C)C | 0.115 µM | 0.181 µM | 26.3 µM
43 | CCC(C)NC(=O)CN(c1cc(OC)ccc1OC)S(C)(=O)=O (centres undefined) | 0.349 µM | 0.438 µM | > 10 µM
44 | Sc1nnc(-c2ccncc2)n1CCc1ccccc1 | 1.08 µM | > 7.49 µM | > 100 µM
45 | Cc1ccc(NC(=O)N2CCN(C(=O)c3nc(-c4ccccc4)nc(C)c3C(=O)OC(C)C)CC2C)cc1 (centres undefined) | 0.171 µM | 0.441 µM | > 10 µM
46 | N[C@@H](COP(=O)(O)O)C(=O)O [DEXFOSFOSERINE] | > 1.06 µM | 1.08 µM | > 10 µM

Row | SMILES | EC50 (Plasmodium falciparum [1]) | EC50 (Plasmodium falciparum [2]) | CC50 [3]
47 | COc1ccc(Nc2nc(NN=Cc3cccc(Cl)c3)nc(Nc3ccc([N+](=O)[O-])cc3)n2)cc1 | 0.717 µM | 0.603 µM | > 100 µM
48 | CC(C)(C)NC(=O)C(C1CC1)N1C(=O)c2cc(O)ccc2NC(=O)[C@@H]1CCCCN (some centres undefined) | 0.139 µM | > 1.25 µM | > 10 µM
49 | CCCCn1c(NN=C2C(=O)Nc3ccccc32)nc2c1c(=O)[nH]c(=O)n2C | 1.13 µM | 1.59 µM | > 10 µM
50 | C=C[C@H]1CN2CC[C@H]1C[C@H]2[C@H](OC(=O)CCCC)c1ccnc2ccccc12 | 0.452 µM | 0.942 µM | > 10 µM
51 | C/C=C1/C[C@H]2[C@@H](OC)Nc3cc(O)c(OC)cc3C(=O)N2C1 | 0.875 µM | 1.03 µM | 8.49 µM
52 | CC1CCCN(C(=O)C2CCN(Cc3ccccn3)CC2)C1 (centres undefined) | 3.58 µM | > 9.14 µM | > 100 µM
53 | CN(C)C=Nc1nn(C)cc1C(=O)Nc1ccc(F)c(Cl)c1 | 0.264 µM | > 7.01 µM | > 100 µM
54 | COC(=O)C1C(=O)C2=C(CC1C)NC(=O)CC2c1cccc(Cl)c1Cl (centres undefined) | 0.617 µM | 0.814 µM | > 100 µM
55 | CCOc1ccccc1NC(=O)C1C(c2ccccc2)=C1c1ccccc1 | > 1.25 µM | 1.8 µM | > 10 µM
56 | C[n+]1c(/C=C\c2ccc(F)cc2)ccc2ccccc21 | 0.0142 µM | 0.275 µM | > 10 µM
57 | COC1C(OC2OC(C)C(O)C(C)(O)C2OC)c2c(cc3c(c2O)C(=O)c2c(ccc4c2OC2OC4(C)C(OC4CC(C)([N+](=O)[O-])C(OC5OC(C)C(O)C(C)(O)C5OC)C(C)O4)C(N(C)C)C2O)C3=O)CC1(C)O (centres undefined) | 0.0701 µM | 0.131 µM | > 10 µM
58 | CCOC(=O)c1cnc2ccc(CC)cc2c1O | 0.525 µM | 0.716 µM | > 100 µM
59 | Cc1ccc(N2C(N)=NC(N)=NC2(C)C)cc1 | 0.43 µM | 0.0193 µM | > 100 µM
60 | Fc1ccc(Nc2nc(NCC3CCCO3)c3ccccc3n2)cc1 (centres undefined) | 0.282 µM | 0.214 µM | 9.53 µM
61 | CC(c1nc2ccccc2c(=O)n1-c1ccccc1Cl)N(Cc1ccccc1)C(=O)Nc1cccc(Br)c1 (centres undefined) | > 0.159 µM | > 1.25 µM | > 10 µM
62 | CC(=O)Nc1ccc(S(=O)(=O)N(C)CC(=O)NN=Cc2ccncc2)cc1 | 1.36 µM | > 5.76 µM | > 100 µM
63 | CCOC(=O)C1=C(CC)NC2=C(C(=O)CC(C)(C)C2)C1c1ccc(Br)cc1 (centres undefined) | 0.0441 µM | 0.408 µM | > 100 µM
64 | O=C(Nc1ccc(-c2nnc(-c3ccc(NC(=O)c4ccccc4[N+](=O)[O-])cc3)o2)cc1)c1ccccc1[N+](=O)[O-] | > 12.5 µM | 0.406 µM | > 100 µM
65 | COc1ccc(C2=CC(=Cc3cccc(OC)c3OC)C(=O)O2)cc1OC | 0.332 µM | 4.76 µM | > 100 µM
66 | Cn1cc([N+](=O)[O-])c(C(=O)NN=Cc2c[nH]c3ccccc23)n1 | 1.1 µM | 1.94 µM | > 10 µM
67 | CCOc1c(Br)cc(C2C(C(=O)OC)=CN(C)C=C2C(=O)OC)cc1OC | 0.263 µM | 0.292 µM | > 100 µM
68 | COc1ccc(/C=C\c2nc(=O)c3ccccc3o2)cc1 | 0.587 µM | 0.697 µM | > 10 µM

From ChEMBL document CHEMBL1156829 (Proc Natl Acad Sci U S A, 2008)
